The values that follow come from paper PMC9389588, “1,6-epi-Cyclophellitol Cyclosulfamidate Is a Bona Fide Lysosomal α-Glucosidase Stabilizer for the Treatment of Pompe Disease” (Journal of the American Chemical Society, 2022).

Assay [1] addresses T1, ER α-glucosidase II (GANAB) (Homo sapiens, UniProt Q14697).
T1 construct: GANAB (from Pompe Disease Fibroblast Lysates); endogenous in cells; host or cells: human fibroblasts (lysate)
T1 sequence (Q14697 29-944): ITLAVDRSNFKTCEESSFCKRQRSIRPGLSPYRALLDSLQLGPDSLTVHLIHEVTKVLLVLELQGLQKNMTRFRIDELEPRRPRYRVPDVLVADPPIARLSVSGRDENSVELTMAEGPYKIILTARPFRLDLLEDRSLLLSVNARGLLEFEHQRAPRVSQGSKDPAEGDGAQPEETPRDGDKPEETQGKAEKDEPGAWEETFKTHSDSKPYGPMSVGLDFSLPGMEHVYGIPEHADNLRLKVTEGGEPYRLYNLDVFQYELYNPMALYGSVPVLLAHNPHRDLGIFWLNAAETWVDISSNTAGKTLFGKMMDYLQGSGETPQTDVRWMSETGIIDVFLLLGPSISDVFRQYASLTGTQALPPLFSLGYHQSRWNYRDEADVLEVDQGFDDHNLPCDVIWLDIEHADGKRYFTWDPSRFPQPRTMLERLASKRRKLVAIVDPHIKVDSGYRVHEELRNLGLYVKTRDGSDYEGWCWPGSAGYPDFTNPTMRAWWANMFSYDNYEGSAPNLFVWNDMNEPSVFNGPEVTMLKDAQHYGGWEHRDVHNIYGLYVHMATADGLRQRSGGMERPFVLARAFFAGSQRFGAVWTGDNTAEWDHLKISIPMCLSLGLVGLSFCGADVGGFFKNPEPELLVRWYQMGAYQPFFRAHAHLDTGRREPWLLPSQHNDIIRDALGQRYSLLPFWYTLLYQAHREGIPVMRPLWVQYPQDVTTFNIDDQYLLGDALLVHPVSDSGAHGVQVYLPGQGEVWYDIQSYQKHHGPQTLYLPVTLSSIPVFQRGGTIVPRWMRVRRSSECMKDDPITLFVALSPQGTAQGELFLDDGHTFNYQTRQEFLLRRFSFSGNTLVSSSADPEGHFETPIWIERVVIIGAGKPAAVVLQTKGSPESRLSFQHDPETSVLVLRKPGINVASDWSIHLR
T1 sequence (P14314 15-528 partner): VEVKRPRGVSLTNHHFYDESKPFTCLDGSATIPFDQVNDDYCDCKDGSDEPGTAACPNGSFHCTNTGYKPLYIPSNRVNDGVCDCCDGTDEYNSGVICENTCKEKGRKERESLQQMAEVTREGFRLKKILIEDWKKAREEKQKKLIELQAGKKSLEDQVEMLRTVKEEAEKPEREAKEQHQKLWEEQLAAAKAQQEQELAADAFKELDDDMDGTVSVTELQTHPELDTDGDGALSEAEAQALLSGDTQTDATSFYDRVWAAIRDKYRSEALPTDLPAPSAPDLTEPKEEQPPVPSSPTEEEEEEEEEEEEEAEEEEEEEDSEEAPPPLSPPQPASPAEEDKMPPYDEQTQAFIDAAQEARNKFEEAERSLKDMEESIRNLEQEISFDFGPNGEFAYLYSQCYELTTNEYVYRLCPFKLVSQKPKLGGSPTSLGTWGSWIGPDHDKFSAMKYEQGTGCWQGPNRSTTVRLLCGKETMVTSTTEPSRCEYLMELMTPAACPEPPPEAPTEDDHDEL
In words: in vitro apparent IC50, GANAB in fibroblast lysates, 4-MU-α-D-glucopyranoside. In kind it is biochemical. The following applies: apparent IC50; Pompe disease fibroblast lysates; pH 7.0; mean ± SD.

Assay [2] addresses T2, β-glucosidase GBA1 (Cerezyme) (Homo sapiens, UniProt P04062, R534H).
T2 construct: purchased
T2 sequence (P04062 40-536 R534H): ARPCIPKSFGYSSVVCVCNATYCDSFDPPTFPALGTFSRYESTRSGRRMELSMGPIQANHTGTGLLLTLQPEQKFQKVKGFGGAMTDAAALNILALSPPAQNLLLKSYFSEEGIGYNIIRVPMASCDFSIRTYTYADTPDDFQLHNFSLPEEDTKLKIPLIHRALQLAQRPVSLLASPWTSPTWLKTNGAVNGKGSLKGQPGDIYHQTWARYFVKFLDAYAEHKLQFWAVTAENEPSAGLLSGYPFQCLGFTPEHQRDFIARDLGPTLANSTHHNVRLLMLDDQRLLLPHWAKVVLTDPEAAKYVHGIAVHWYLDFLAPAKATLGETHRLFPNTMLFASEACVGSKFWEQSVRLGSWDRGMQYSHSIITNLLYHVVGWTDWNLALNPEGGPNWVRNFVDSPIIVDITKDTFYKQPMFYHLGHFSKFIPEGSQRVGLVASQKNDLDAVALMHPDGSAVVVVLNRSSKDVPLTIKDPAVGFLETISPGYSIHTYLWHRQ
In words: in vitro apparent IC50, GBA1 (Cerezyme), 4-MU-β-D-glucopyranoside. It counts as biochemical. Conditions: pH 5.2, mean ± SD, read-out: in vitro GBA IC50.

In assay [3] the target is T3, glucosylceramide synthase (GCS) (Mus musculus, UniProt O88693).
T3 construct: endogenous in cells; host or cells: RAW 264.7
T3 sequence (O88693 1-394): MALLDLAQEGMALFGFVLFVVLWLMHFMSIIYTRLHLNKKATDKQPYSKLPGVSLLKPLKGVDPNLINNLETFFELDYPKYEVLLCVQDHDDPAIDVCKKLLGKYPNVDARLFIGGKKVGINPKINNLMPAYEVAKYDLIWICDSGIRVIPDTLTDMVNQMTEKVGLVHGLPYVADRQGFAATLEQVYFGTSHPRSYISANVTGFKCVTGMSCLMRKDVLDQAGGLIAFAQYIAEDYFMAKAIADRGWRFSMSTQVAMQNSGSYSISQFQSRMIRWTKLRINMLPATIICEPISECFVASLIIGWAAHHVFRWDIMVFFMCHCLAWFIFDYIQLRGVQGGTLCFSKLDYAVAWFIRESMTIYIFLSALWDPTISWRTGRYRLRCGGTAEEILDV
In words: in situ cell inhibition of GCS in RAW 264.7 cells, glucosylation of C6-NBD-ceramide. It counts as cell-based. Conditions: mean ± SD.

Assay [4] has as its target T4, rhGAA (Myozyme) (Homo sapiens, UniProt P10253).
T4 construct: purchased Sanofi Genzyme
The assay can be described thus: thermostability assay of Myozyme, Tycho NT.6. It counts as binding.

For assay [5], the target named is α-glucosidase GAA (Myozyme) (Homo sapiens, UniProt P10253). In words: in vitro apparent IC50, GAA (Myozyme), 4-MU-α-D-glucopyranoside. It counts as biochemical. More on the design: purchased Sanofi Genzyme. Conditions: Myozyme 47 nM, pH 4.0, 30 min preincubation, mean ± SD.

With `O=S1(=O)N[C@H]2[C@H](CO)[C@@H](O)[C@H](O)[C@@H](O)[C@H]2O1` [compound 6], the 50% inhibitory concentration (IC50) in assay [1] is 47 ± 1.75 µM; in assay [2], more than 500 µM; in assay [3], more than 50 µM; in assay [5], 112 ± 2.54 µM. The “effect on rhGAA thermostability, in words” value in assay [4] (increasing temperature) is “does not prevent enzyme unfolding”.

Turning to `O=S1(=O)N[C@@H]2[C@H](O)[C@@H](O)[C@H](O)[C@@H](CO)[C@@H]2O1` [compound 4, 1,6-epi-cyclophellitol cyclosulfamidate], the IC50 in assay [1] is 496 ± 30 µM; in assay [2], more than 500 µM; in assay [3] it was more than 50 µM; in assay [5] it was 5.17 ± 0.195 µM. In assay [4] (Myozyme 1 μM, 0-20 μM compound, pH 6.5), the “maximum shift in inflection temperature (ΔTimax)” value stood at 11.2 °C. For the same compound, the EC50 in assay [4] (Myozyme 1 μM, 0-20 μM compound, pH 6.5, read-out: EC50 of thermal stabilization) was found to be 1.16 µM.

As usually defined, the IC50 is the concentration that inhibits the measured activity by half. As usually defined, the EC50 is the concentration that produces a half-maximal response.
